# Measurements from patent US20090030024A1, “THIAZOLES AS FUNGICIDES” (priority 2005, published 2009).
# Marks after values point to notes of the source that are not given here.
# Assay: logP determination by retention times (calibration with alkan-2-ones)
# Details: for logP: HPLC, reversed-phase C 18, EEC Directive 79/831 Annex V.A8, method *: 40° C., 0.1% aqueous formic acid and acetonitrile, linear gradient 10% to 95% acetonitrile
Compound,chromatographic logP,logP
"Cc1nc(C2CC2)sc1-c1ccnc(Nc2cccc(C(F)(F)F)c2)n1 [Example 229, 4-(2-cyclopropyl-4-methyl-1,3-thiazol-5-yl)-N-[3-(trifluoromethyl)phenyl]pyrimidine-2-amine]",4.04,
"Cc1nc(C2CC2)sc1-c1ccnc(Nc2ccc(C(F)(F)F)cc2)n1 [Example 230, 4-(2-cyclopropyl-4-methyl-1,3-thiazol-5-yl)-N-[4-(trifluoromethyl)phenyl]pyrimidine-2-amine]",4.2,
"Cc1nc(C2CC2)sc1-c1ccnc(Nc2ccccc2)n1 [Example 231, 4-(2-cyclopropyl-4-methyl-1,3-thiazol-5-yl)-N-phenylpyrimidine-2-amine]",3.26,
"CCc1nc(C)c(-c2ccnc(Nc3cccc(OC)c3)n2)s1 [Example 236, 4-(2-ethyl-4-methyl-1,3-thiazol-5-yl)-N-(3-methoxyphenyl)pyrimidine-2-amine]",3,
"CCc1nc(C)c(-c2ccnc(Nc3cccc([N+](=O)[O-])c3)n2)s1 [Example 237, 4-(2-ethyl-4-methyl-1,3-thiazol-5-yl)-N-(3-nitrophenyl)pyrimidine-2-amine]",3.14,
"CCc1nc(C)c(-c2ccnc(Nc3cccc(C(F)(F)F)c3)n2)s1 [Example 241, 4-(2-ethyl-4-methyl-1,3-thiazol-5-yl)-N-[3-(trifluoromethyl)phenyl]pyrimidine-2-amine]",3.85,
"COc1cccc(Nc2nccc(-c3sc(C(C)C)nc3C)n2)c1 [Example 245, 4-(2-isopropyl-4-methyl-1,3-thiazol-5-yl)-N-(3-methoxyphenyl)pyrimidine-2-amine]",3.5,
"Cc1nc(C(C)C)sc1-c1ccnc(Nc2cccc([N+](=O)[O-])c2)n1 [Example 246, 4-(2-isopropyl-4-methyl-1,3-thiazol-5-yl)-N-(3-nitrophenyl)pyrimidine-2-amine]",3.55,
"Cc1nc(C(C)C)sc1-c1ccnc(Nc2cccc(C(F)(F)F)c2)n1 [Example 248, 4-(2-isopropyl-4-methyl-1,3-thiazol-5-yl)-N-[3-(trifluoromethyl)phenyl]pyrimidine-2-amine]",4.3,
"Cc1nc(C(C)C)sc1-c1ccnc(Nc2ccc(N3CCN(C)CC3)cc2)n1 [Example 249, 4-(2-isopropyl-4-methyl-1,3-thiazol-5-yl)-N-[4-(4-methylpiperazin-1-yl)phenyl]pyrimidine-2-amine]",1.71,
"Cc1ncsc1-c1ccnc(Nc2cccc(C(F)(F)F)c2)n1 [Example 267, 4-(4-methyl-1,3-thiazol-5-yl)-N-[3-(trifluoromethyl)phenyl]pyrimidine-2-amine]",3.14,
"Cc1nc2c(s1)-c1nc(Nc3ccc(O)cc3)ncc1CC2 [Example 281, 4-[(2-methyl-4,5-dihydro[1,3]thiazole[4,5-h]quinazolin-8-yl)amino]phenol]",,1.41*
"COCC(C)Nc1nc(C)c(-c2ccnc(Nc3ccc(O)cc3)n2)s1 (stereo not drawn) [Example 284, 4-[(4-{2-[(2-methoxy-1-methylethyl)amino]-4-methyl-1,3-thiazol-5-yl}pyrimidin-2-yl)amino]phenol]",1.4,
"COc1cc(Nc2nccc(-c3sc(N(C)C)nc3C(F)(F)F)n2)cc(OC)c1OC [Example 291, 4-[2-(dimethylamine)-4-(trifluoromethyl)-1,3-thiazol-5-yl]-N-(3,4,5-trimethoxyphenyl)pyrimidine-2-amine]",,3.43*
"CN(C)c1nc(C(F)(F)F)c(-c2ccnc(Nc3ccccc3)n2)s1 [Example 292, 4-[2-(dimethylamine)-4-(trifluoromethyl)-1,3-thiazol-5-yl]-N-phenylpyrimidine-2-amine]",,3.88*
"COc1cccc(Nc2nccc(-c3sc(N(C)C)nc3C)n2)c1 [Example 293, 4-[2-(dimethylamine)-4-methyl-1,3-thiazol-5-yl]-N-(3-methoxyphenyl)pyrimidine-2-amine]",,1.98*
"Cc1cc(Nc2nccc(-c3sc(N(C)C)nc3C)n2)ccc1F [Example 294, 4-[2-(dimethylamine)-4-methyl-1,3-thiazol-5-yl]-N-(4-fluoro-3-methylphenyl)pyrimidine-2-amine]",,2.22*
"COCc1nc(C)c(-c2ccnc(Nc3cc(OC)c(OC)c(OC)c3)n2)s1 [Example 295, 4-[2-(methoxymethyl)-4-methyl-1,3-thiazol-5-yl]-N-(3,4,5-trimethoxyphenyl)pyrimidine-2-amine]",2.36,
"COCc1nc(C)c(-c2ccnc(Nc3cccc(OC)c3)n2)s1 [Example 296, 4-[2-(methoxymethyl)-4-methyl-1,3-thiazol-5-yl]-N-(3-methoxyphenyl)pyrimidine-2-amine]",2.67,
"COCc1nc(C)c(-c2ccnc(Nc3ccc(OC)nc3)n2)s1 [Example 298, 4-[2-(methoxymethyl)-4-methyl-1,3-thiazol-5-yl]-N-(6-methoxypyridin-3-yl)pyrimidine-2-amine]",2.13,
"COCc1nc(C)c(-c2ccnc(Nc3cccc(C(F)(F)F)c3)n2)s1 [Example 299, 4-[2-(methoxymethyl)-4-methyl-1,3-thiazol-5-yl]-N-[3-(trifluoromethyl)phenyl]pyrimidine-2-amine]",3.41,
"COCc1nc(C)c(-c2ccnc(Nc3ccc(C(F)(F)F)cc3)n2)s1 [Example 300, 4-[2-(methoxymethyl)-4-methyl-1,3-thiazol-5-yl]-N-[4-(trifluoromethyl)phenyl]pyrimidine-2-amine]",3.59,
"COCc1nc(C)c(-c2ccnc(Nc3ccccc3)n2)s1 [Example 301, 4-[2-(methoxymethyl)-4-methyl-1,3-thiazol-5-yl]-N-phenylpyrimidine-2-amine]",3.01,
"COc1cc(Nc2nccc(-c3sc(C)nc3C(F)(F)F)n2)cc(OC)c1OC [Example 310, 4-[2-methyl-4-(trifluoromethyl)-1,3-thiazol-5-yl]-N-(3,4,5-trimethoxyphenyl)pyrimidine-2-amine]",3.02,
"Cc1nc(C(F)(F)F)c(-c2ccnc(Nc3cccc([N+](=O)[O-])c3)n2)s1 [Example 311, 4-[2-methyl-4-(trifluoromethyl)-1,3-thiazol-5-yl]-N-(3-nitrophenyl)pyrimidine-2-amine]",3.5,
"Cc1nc(C(F)(F)F)c(-c2ccnc(Nc3ccccc3)n2)s1 [Example 312, 4-[2-methyl-4-(trifluoromethyl)-1,3-thiazol-5-yl]-N-phenylpyrimidine-2-amine]",3.45,
"CNc1nc(C)c(-c2ccnc(Nc3cc(OC)c(OC)c(OC)c3)n2)s1 [Example 313, 4-[4-methyl-2-(methylamine)-1,3-thiazol-5-yl]-N-(3,4,5-trimethoxyphenyl)pyrimidine-2-amine]",,1.53*
"CNc1nc(C)c(-c2ccnc(Nc3ccccc3)n2)s1 [Example 315, 4-[4-methyl-2-(methylamine)-1,3-thiazol-5-yl]-N-phenylpyrimidine-2-amine]",,1.61*
"COc1cc(Nc2nccc(-c3sc(SC)nc3C)n2)cc(OC)c1OC [Example 316, 4-[4-methyl-2-(methylthio)-1,3-thiazol-5-yl]-N-(3,4,5-trimethoxyphenyl)pyrimidine-2-amine]",2.76,
"CSc1nc(C)c(-c2ccnc(Nc3ccc(C(F)(F)F)cc3)n2)s1 [Example 317, 4-[4-methyl-2-(methylthio)-1,3-thiazol-5-yl]-N-[4-(trifluoromethyl)phenyl]pyrimidine-2-amine]",4.37,
